± gives the standard deviation of the averaged measurements.
What was measured:
Assay in all cases: level (log10 ratio to DMSO vehicle control); higher = higher biomarker level / cell amount than vehicle control
[1] = compound: C=C(C)C(=O)OCC(F)(F)C(F)(F)C(F)(F)F [2,2,3,3,4,4,4-Heptafluorobutyl methacrylate]; settings: in DMSO
Protocol: (§1)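 BioMAP Diversity Plus panel of 12 human primary cell co-culture systems (3C, 4H, LPS, SAg, BT, BF4T, BE3C, CASM3C, HDF3CGF, KF3CT, MyoF, Mphg). Compounds were added 1 h before stimulation and left for 24 h (MyoF 48 h; BT 72 h for soluble read-outs or 6 d for IgG). Biomarkers were read by ELISA, cytotoxicity by SRB, PBMC viability and proliferation by Alamar Blue. Each well value was divided by the mean of 8 DMSO control wells on the same plate and log10 transformed; duplicate blinded samples were tested at 4 concentrations.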

[2] = compound: C=CC(=O)OCC(F)(F)C(F)(F)C(F)(F)C(F)(F)C(F)(F)C(F)(F)C(F)(F)C(F)F [1H,1H,9H-Perfluorononyl acrylate]; settings: in DMSO
Protocol: as §1

[3] = compound: C=CC(=O)OCC(F)(F)C(F)(F)C(F)(F)C(F)(F)COC(=O)C=C [1H,1H,6H,6H-Perfluorohexane-1,6-diol diacrylate]; settings: 6700 nM; in DMSO
Protocol: as §1

[4] = compound: C=CC(=O)OCCC(F)(F)C(F)(F)C(F)(F)C(F)(F)C(F)(F)C(F)(F)C(F)(F)C(F)(F)F [8:2 Fluorotelomer acrylate]; settings: in DMSO
Protocol: as §1

[5] = compound: FC(F)(F)C(F)(F)C(F)(F)C(F)(F)CCI [1H,1H,2H,2H-Perfluorohexyl iodide]; settings: in DMSO
Protocol: as §1

[6] = compound: O=C(O)C(F)(F)C(F)(F)C(F)(F)C(F)(F)C(F)(F)C(F)(F)C(F)(F)F [Ammonium perfluorooctanoate]; settings: in DMSO
Protocol: as §1

[7] = compound: OCCC(F)(F)C(F)(F)C(F)(F)C(F)(F)C(F)(F)C(F)(F)C(F)(F)C(F)(F)F [8:2 Fluorotelomer alcohol]; settings: 6700 nM; in DMSO
Protocol: as §1

[8] = compound: OCCCC(F)(F)C(F)(F)C(F)(F)C(F)(F)C(F)(F)C(F)(F)C(F)(F)C(F)(F)F [3-(Perfluorooctyl)propanol]; settings: 6700 nM; in DMSO
Protocol: as §1

Test System | level (log10) ([1]; 6700 nM) | level (log10) ([1]; 20000 nM) | level (log10) ([1]; 60000 nM) | level (log10) ([2]; 6700 nM) | level (log10) ([2]; 20000 nM) | level (log10) ([2]; 60000 nM) | level (log10) [3] | level (log10) ([4]; 6700 nM) | level (log10) ([4]; 20000 nM) | level (log10) ([4]; 60000 nM) | level (log10) ([5]; 6700 nM) | level (log10) ([5]; 20000 nM) | level (log10) ([5]; 60000 nM) | level (log10) ([6]; 6700 nM) | level (log10) ([6]; 20000 nM) | level (log10) ([6]; 60000 nM) | level (log10) [7] | level (log10) [8]
KF3CT:CXCL10/IP-10 | 0.0055 ± 0.00071 | -0.001 ± 0.0057 | 0.0085 ± 0.005 | -0.003 ± 0.024 | -0.01 ± 0.017 | -0.015 ± 0.0099 | -0.0365 ± 0.005 | -0.007 ± 0.0057 | -0.0125 ± 0.0021 | -0.0135 ± 0.00071 | 0.012 ± 0.045 | 0.0205 ± 0.028 | 0.017 ± 0.05 | -0.0025 ± 0.00071 | -0.0045 ± 0.005 | -0.007 ± 0.0014 | -0.0355 ± 0.018 | -0.053 ± 0.02
HDF3CGF:PAI-I | -0.045 ± 0.011 | -0.018 ± 0.1 | 0.0135 ± 0.0035 | 0.0785 ± 0.076 | 0.025 ± 0.04 | 0.0165 ± 0.1 | -0.074 ± 0.016 | -0.0135 ± 0.013 | -0.0665 ± 0.0021 | -0.071 ± 0.0057 | 0.002 ± 0.028 | 0.0045 ± 0.0035 | -0.0105 ± 0.044 | 0.0885 ± 0.03 | 0.0995 ± 0.044 | 0.017 ± 0.044 | -0.0555 ± 0.0035 | -0.391 ± 0.07
MyoF:SRB | -0.005 ± 0.016 | -0.0005 ± 0.0021 | 0.0035 ± 0.011 | -0.0055 ± 0.0078 | -0.016 ± 0.0042 | -0.0725 ± 0.019 | -0.0185 ± 0.013 | 0 ± 0.0014 | -0.001 ± 0.0028 | -0.0095 ± 0.0092 | 0.008 ± 0.0042 | 0.0055 ± 0.012 | 0.004 ± 0.018 | 0.0005 ± 0.011 | 0.01 ± 0.011 | -0.048 ± 0.014 | -0.0005 ± 0.015 | -0.017 ± 0.0014
MyoF:CD106/VCAM-1 | 0.0045 ± 0.019 | -0.006 ± 0.0057 | 0.0035 ± 0.025 | -0.0025 ± 0.0035 | -0.032 ± 0.0071 | -0.163 ± 0.0057 | -0.219 ± 0.035 | -0.012 ± 0.0071 | -0.0335 ± 0.0078 | -0.027 ± 0.023 | 0.001 ± 0.0071 | -0.0135 ± 0.015 | -0.059 ± 0.014 | -0.011 ± 0.016 | -0.017 ± 0.0085 | -0.017 ± 0.0057 | -0.026 ± 0.016 | -0.078 ± 0.044
HDF3CGF:Proliferation 72hr | -0.0095 ± 0.087 | 0.001 ± 0.042 | 0.008 ± 0.0071 | -0.072 ± 0.079 | -0.454 ± 0.021 | -0.666 ± 0.15 | -0.567 ± 0.013 | -0.011 ± 0.0099 | -0.026 ± 0.044 | -0.154 ± 0.076 | 0.0275 ± 0.025 | 0.0095 ± 0.076 | 0.006 ± 0.04 | 0.058 ± 0.065 | 0.124 ± 0.018 | 0.119 ± 0.021 | -0.374 ± 0.26 | -1.04 ± 0.033
BE3C:Keratin 8/18 | -0.0165 ± 0.056 | -0.002 ± 0.05 | -0.003 ± 0.03 | -0.037 ± 0.011 | -0.0165 ± 0.005 | -0.0355 ± 0.04 | 0.0075 ± 0.005 | -0.013 ± 0.0014 | -0.014 ± 0.0085 | 0.0085 ± 0.033 | 0 ± 0.0099 | -0.0095 ± 0.013 | -0.006 ± 0.0014 | -0.0195 ± 0.012 | -0.0215 ± 0.012 | -0.0225 ± 0.0035 | -0.0185 ± 0.012 | 0.0085 ± 0.033
CASM3C:IL-6 | 0.004 ± 0.031 | 0.0105 ± 0.028 | 0.022 ± 0.0071 | -0.036 ± 0.042 | 0.0085 ± 0.074 | -0.031 ± 0.047 | -0.0735 ± 0.15 | -0.023 ± 0.0099 | -0.017 ± 0.027 | 0.0105 ± 0.05 | 0.0195 ± 0.028 | 0.005 ± 0.025 | 0.036 ± 0.098 | -0.0035 ± 0.025 | -0.024 ± 0.048 | -0.018 ± 0.05 | -0.015 ± 0.014 | -0.0335 ± 0.0021
HDF3CGF:CD54/ICAM-1 | -0.008 ± 0.0071 | -0.013 ± 0.0071 | -0.007 ± 0.0099 | -0.021 ± 0.018 | -0.0435 ± 0.00071 | -0.0765 ± 0.042 | -0.175 ± 0.038 | 0.034 ± 0.04 | 0.044 ± 0.059 | 0.0395 ± 0.088 | -0.023 ± 0.013 | -0.0005 ± 0.005 | -0.0085 ± 0.016 | -0.0145 ± 0.015 | -0.043 ± 0.0057 | -0.054 ± 0.016 | 0.0315 ± 0.035 | -0.113 ± 0.15
BE3C:tPA | -0.0095 ± 0.029 | -0.016 ± 0.016 | -0.021 ± 0.027 | 0.0175 ± 0.018 | 0.0315 ± 0.0035 | 0.026 ± 0.0099 | -0.077 ± 0.0099 | -0.034 ± 0.02 | -0.051 ± 0.0042 | -0.002 ± 0.04 | -0.001 ± 0.0028 | 0.0175 ± 0.019 | 0.051 ± 0.014 | -0.029 ± 0.045 | -0.015 ± 0.02 | -0.07 ± 0.0085 | -0.064 ± 0.013 | 0.0365 ± 0.012
KF3CT:IL-1alpha | -0.005 ± 0.0071 | -0.007 ± 0.014 | -0.0005 ± 0.016 | 0.021 ± 0.0042 | 0.023 ± 0.031 | 0.018 ± 0.0085 | -0.0545 ± 0.035 | 0.0005 ± 0.011 | -0.0245 ± 0.00071 | -0.0355 ± 0.04 | 0.0115 ± 0.037 | 0.0105 ± 0.015 | 0.051 ± 0.0071 | -0.0065 ± 0.00071 | -0.026 ± 0.0071 | -0.079 ± 0.025 | -0.0545 ± 0.029 | -0.0985 ± 0.012
CASM3C:PAI-I | -0.003 ± 0.0042 | 0.0005 ± 0.0021 | 0.001 ± 0.0042 | 0.007 ± 0.0057 | 0.0045 ± 0.0035 | -0.005 ± 0.028 | 0.0005 ± 0.0021 | -0.0045 ± 0.0021 | -0.008 ± 0.0099 | 0.005 ± 0.017 | 0.0135 ± 0.022 | 0.0165 ± 0.022 | 0.0125 ± 0.044 | 0.0005 ± 0.00071 | -0.001 ± 0.0028 | 0.0085 ± 0.0078 | -0.0035 ± 0.011 | -0.0165 ± 0.0092
HDF3CGF:TIMP-2 | -0.008 ± 0.0014 | -0.0105 ± 0.022 | -0.0245 ± 0.019 | 0.025 ± 0.092 | -0.0355 ± 0.032 | -0.1545 ± 0.00071 | -0.104 ± 0.066 | -0.014 ± 0.027 | -0.0405 ± 0.0064 | -0.0295 ± 0.0092 | -0.0105 ± 0.013 | -0.023 ± 0.021 | -0.115 ± 0.0064 | 0.0225 ± 0.015 | 0.0535 ± 0.039 | 0.047 ± 0.05 | -0.0475 ± 0.079 | 0.029 ± 0.013
MyoF:MMP-1 | -0.0215 ± 0.023 | -0.0075 ± 0.0092 | 0.0165 ± 0.047 | -0.001 ± 0.054 | 0.0505 ± 0.0064 | 0.27 ± 0.033 | 0.231 ± 0.023 | -0.0295 ± 0.0092 | -0.06 ± 0.071 | 0.0075 ± 0.098 | -0.0055 ± 0.023 | -0.0045 ± 0.039 | 0.066 ± 0.11 | -0.029 ± 0.016 | -0.0145 ± 0.019 | 0.0415 ± 0.013 | -0.0175 ± 0.011 | 0.0315 ± 0.011
3C:CD142/Tissue Factor | -0.012 ± 0.021 | -0.017 ± 0.0014 | 0.001 ± 0.0099 | -0.007 ± 0.0028 | -0.0145 ± 0.016 | -0.024 ± 0.033 | -0.134 ± 0.04 | 0.0065 ± 0.029 | 0.0115 ± 0.0035 | 0.0155 ± 0.021 | -0.0125 ± 0.028 | 0.0155 ± 0.047 | 0.0725 ± 0.037 | -0.0145 ± 0.0035 | -0.0045 ± 0.0021 | -0.036 ± 0.017 | 0.0035 ± 0.14 | -0.054 ± 0.016
BE3C:uPA | -0.005 ± 0.013 | 0.005 ± 0.011 | -0.002 ± 0.025 | -0.0335 ± 0.0092 | 0.0015 ± 0.0092 | -0.0195 ± 0.0035 | -0.02 ± 0.014 | -0.0175 ± 0.005 | -0.008 ± 0.0028 | -0.001 ± 0.017 | -0.001 ± 0.0071 | -0.007 ± 0.0071 | -0.001 ± 0.0014 | 0.002 ± 0.0071 | -0.002 ± 0.0042 | 0.018 ± 0.0085 | -0.0175 ± 0.00071 | -0.005 ± 0.0085

Source: the supplement of paper PMC10331698
